Experimental data: article PMC11642940, “A New Demand for Improved Selectivity and Potency of Cyanine Dyes as Antiproliferative Agents Against Colorectal Cancer Cells” (Molecules, 2024)

What was measured:
[1] = MTT cell viability assay, Caco-2; settings: human
Procedure: (§1) To evaluate the anticancer potential of monomethine cyanine dyes 1–12, a cell proliferation study was conducted using the 3-(4,5-dimethylthiazol-2-yl)-2,5-diphenyltetrazolium bromide (MTT) assay. For this preliminary evaluation, a concentration of 10 µM for each dye was tested, with the well-established chemotherapy agent 5-fluorouracil (5-FU) serving as a positive control. The assay included normal human dermal fibroblasts (NHDF) as non-tumor cells, alongside tumor cell lines from colorectal (Caco-2), prostate (PC-3), and breast (MCF-7) adenocarcinomas.
(§2) The cell lines used in this study (Caco-2, MCF-7, PC-3, and NHDF) were obtained from the American Type Culture Collection (ATCC, Manassas, VA, USA) and cultured in 75 cm^2 culture flasks at 37 °C in a humidified atmosphere with 5% CO2 in a LEEC Culture Safe Precision CO2 Incubator. PC-3 cells were grown in Roswell Park Memorial Institute (RPMI) medium supplemented with 10% of inactivated Fetal Bovine Serum (FBS) and 1% of an antibiotic mixture (Sp; 10,000 U/mL of penicillin G and […] of streptomycin). MCF-7 and Caco-2 cell lines were both cultured using Dulbecco’s Modified Eagle Medium (DMEM). However, the medium for MCF-7 cells was complemented with 10% of inactivated FBS and 1% of antibiotic/antimycotic mixture (Ab; 10,000 U/mL of penicillin G, […] of streptomycin and 25 µg/mL of amphotericin B), and the medium for Caco-2 cells was supplemented with 20% of inactivated FBS and 1% of Sp. Finally, RPMI medium supplemented with 10% FBS, 2 mM of L-glutamine, 10 mM of 4-(2-hydroxyethyl)-1-piperazineethanesulfonic acid (HEPES), 1 mM of sodium pyruvate, and 1% of Ab was used to culture NHDF cells. The culture media were renewed every two to three days until near confluence was achieved. Then, cells were detached using a solution of 0.125 g/L of trypsin and 0.02 g/L of ethylenediaminetetracetic acid (EDTA), counted by the trypan blue method, resuspended, and adequately seeded to continue the culture in 75 cm^2 flasks or for the experiments described below. All manipulations were performed in a Labculture Class II A2 Biological Safety Cabinet.
(§3) After trypsinization, cells were seeded in 96-well culture plates (100 µL; 2 × 10^4 cells/mL), and after 48 h (for adherence), they were incubated with the compounds under study in the absence of light for a duration of 72 h. Then, the medium was removed, and fresh incomplete culture medium (without FBS and Ab or Sp) and MTT solution [5 mg/mL in phosphate buffer saline (PBS)] were added to each well, followed by 4 h of incubation. After this, the medium containing MTT was removed and DMSO was added to dissolve formazan crystals. The absorbance of each well at 570 nm was determined using a microplate spectrophotometer Bio-Rad (Hercules, CA, USA) xMark. Untreated cells were considered the negative control, and 5-FU, a clinically used drug, was considered the positive control. For data analysis, the relative cell proliferation relative to the negative control cells was calculated. For each cell viability study, at least two independent assays in quadruplicate were performed. Increasing concentrations of the compounds between 0.001 and 100 μM were used to determine the IC50 values.

[2] = system: Caco-2 colorectal adenocarcinoma cells; assay: MTT cell viability assay, Caco-2; settings: for SI Caco-2 (selectivity index, cancer versus non-cancer cell line NHDF): Caco-2 versus NHDF, 72 h; for IC50 / viability at 10 µM: Homo sapiens, Caco-2, 72 h; for IC50: read-out: IC50 Caco-2; for viability at 10 µM: read-out: cell viability percentage in relation to control, Caco-2
Procedure: as §1, §2, §3

Caco-2 cells [3] = assay: Cell cycle distribution by PI staining and flow cytometry; type: cell-based, human
Procedure: After excluding sub-G1 events, we proceeded to evaluate the impact of dyes 5 and 10 on cell cycle distribution.
Apoptosis (sub-G1 events) and cell cycle distribution were evaluated by propidium iodide (PI) staining and flow cytometry, as described by Riccardi and Nicolleti. After 48 h of Caco-2 cells (2 mL; 3 × 10^4 cells/mL) adherence in 6-well plates, the culture medium was substituted with the test solutions (3 mL and 5 mL for negative control) and incubated for a further 72 or 120 h. Untreated cells were used as the negative control, and sorbitol and 5-FU were used as positive controls. After incubation, the supernatant was collected in a centrifuge tube, cells were washed with PBS, trypsinized and wells were once again washed with PBS. This cell suspension was maintained on ice, centrifugated at 300 g for 5 min, and then the pellet was resuspended in 0.5 mL of PBS. Cells were fixed by adding 4.5 mL of 70% ethanol cooled at −20 °C on ice and were stored at −20 °C for a period ranging from one to a few days. On the day of flow cytometry analysis, PBS was added to the fixed cell tubes, followed by centrifugation and removal of the supernatant. The pellet was resuspended in 0.5 mL of PBS and 0.5 mL of DNA extraction solution (192 mL of 0.2 M sodium phosphate and 8 mL of 0.1% Triton X-100, pH 7.8). After incubation for 5 min, the cells were once again centrifuged, the supernatant was removed, and the pellet was resuspended in 0.3 mL of staining solution (20 µg/mL of PI and 0.2 mg/mL of DNase-free RNase in PBS). Using a FACSCalibur flow cytometer (Becton Dickinson, Franklin Lakes, NJ, USA) with a 488 nm laser line, a minimum of 20,000 events were acquired and recorded using the BD CellQuestTM Pro 4.0.2 software, and analyzed with FlowJo 10.5.3 software. To exclude debris and necrotic cells, events with a lower diameter (forward scatter; FCS) and PI fluorescence (FL3) than the hypodiploid apoptotic cells were eliminated (Figures S1 and S2). Two independent experiments were performed. A Student’s t-test was performed to evaluate the statistical significance of the results.

Caco-2 cells [4] = assay: Caco-2 morphological analysis (optical microscopy); settings: 72 h
Procedure: Sorbitol and 5-FU were used as positive controls, while untreated cells served as the negative control.
Caco-2 cells near confluency were trypsinized, counted, and then seeded at 3 × 10^4 cells/mL (3 mL) in 35 mm cell culture dishes previously treated for tissue culture. After cell adherence (48 h), they were incubated with solutions under study for 72 h in the absence of light. The cellular morphology was verified every 24 h using a CKX41 SF inverted microscope (Olympus, Tokyo, Japan) with 10, 20, or 40× objectives. A DC6 V digital camera (Olympus, Tokyo, Japan) coupled to the microscope was used to capture cell imaging. The morphology of cells in the presence or absence of treatments was compared.

[5] = target: T1, topoisomerase II (Topo II) (Homo sapiens, UniProt P11388); assay: Topoisomerase II inhibitory assay (pRYG DNA relaxation, agarose gel); type: biochemical; settings: 50 µM, 5.0 units Topo II, 250.0 ng pRYG DNA, mean ± SD of two assays
T1 construct: purchased TopoGEN Inc. (Buena Vista, CO, USA) 1009-1
T1 sequence (P11388 whole entry): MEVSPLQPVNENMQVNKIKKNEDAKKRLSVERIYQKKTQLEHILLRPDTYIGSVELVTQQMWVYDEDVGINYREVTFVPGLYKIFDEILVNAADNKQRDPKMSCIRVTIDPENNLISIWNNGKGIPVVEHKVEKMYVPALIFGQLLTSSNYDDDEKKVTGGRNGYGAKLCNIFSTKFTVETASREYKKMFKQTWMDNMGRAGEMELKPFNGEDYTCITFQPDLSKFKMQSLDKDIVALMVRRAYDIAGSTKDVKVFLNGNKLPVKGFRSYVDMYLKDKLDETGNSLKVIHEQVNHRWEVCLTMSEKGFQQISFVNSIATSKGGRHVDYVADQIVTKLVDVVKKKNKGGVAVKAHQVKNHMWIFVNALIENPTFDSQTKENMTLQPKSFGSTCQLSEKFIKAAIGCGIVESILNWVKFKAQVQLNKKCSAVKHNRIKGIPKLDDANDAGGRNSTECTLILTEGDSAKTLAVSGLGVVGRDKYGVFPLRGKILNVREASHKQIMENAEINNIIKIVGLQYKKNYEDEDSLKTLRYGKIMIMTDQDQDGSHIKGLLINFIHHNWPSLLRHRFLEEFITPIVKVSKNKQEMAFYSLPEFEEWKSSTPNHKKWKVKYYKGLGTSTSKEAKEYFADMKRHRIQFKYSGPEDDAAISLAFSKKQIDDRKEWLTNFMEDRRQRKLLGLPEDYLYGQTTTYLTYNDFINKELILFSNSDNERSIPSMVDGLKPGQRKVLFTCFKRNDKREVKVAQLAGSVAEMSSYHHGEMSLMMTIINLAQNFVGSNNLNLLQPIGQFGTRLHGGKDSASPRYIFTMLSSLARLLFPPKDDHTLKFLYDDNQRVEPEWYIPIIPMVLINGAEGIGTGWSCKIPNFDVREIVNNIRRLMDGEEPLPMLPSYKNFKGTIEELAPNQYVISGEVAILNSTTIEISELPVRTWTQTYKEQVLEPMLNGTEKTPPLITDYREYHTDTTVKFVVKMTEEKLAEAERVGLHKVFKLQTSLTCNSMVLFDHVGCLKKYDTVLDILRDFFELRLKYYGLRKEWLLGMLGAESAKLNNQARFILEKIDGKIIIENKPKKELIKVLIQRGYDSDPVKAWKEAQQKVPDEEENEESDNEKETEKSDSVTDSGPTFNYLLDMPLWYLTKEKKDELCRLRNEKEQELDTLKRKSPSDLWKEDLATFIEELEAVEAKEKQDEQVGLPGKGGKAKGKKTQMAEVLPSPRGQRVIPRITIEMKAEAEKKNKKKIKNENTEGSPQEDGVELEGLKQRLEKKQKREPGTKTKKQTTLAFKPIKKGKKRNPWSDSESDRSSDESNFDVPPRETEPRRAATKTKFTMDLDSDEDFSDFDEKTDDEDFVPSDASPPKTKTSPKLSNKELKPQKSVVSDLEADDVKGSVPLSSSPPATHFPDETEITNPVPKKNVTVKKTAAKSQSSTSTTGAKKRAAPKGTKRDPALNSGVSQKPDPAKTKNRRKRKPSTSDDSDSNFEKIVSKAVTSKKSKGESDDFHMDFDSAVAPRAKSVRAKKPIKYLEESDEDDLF
Procedure: To do so, the impact of cyanines on Topo II activity was assessed using a pRYG DNA substrate in the presence and absence of the dyes. This was monitored via a Topo II drug screening kit followed by agarose gel electrophoresis. […] All samples applied to the agarose gel contained 5.0 units of Topo II and 250.0 ng of pRYG DNA as the substrate. Linear pRYG DNA (Lane DNA marker) served as the reference control for the DNA band positions, and 50 µM VP-16 (Lane 3) was used as a positive control. […]
The formation of relaxed DNA products, indicating Topo II activity, is visible in Lane 1 (incubation of pRYG DNA with Topo II) of Figure 8A. […] The intensity of the relaxed DNA bands from two independent experiments was quantified for all samples and normalized to the Topo II activity in the absence of inhibitors (No drug sample, Lane 1) using Image Lab, Version 6.1 (Figure 8B). […]
Cyanine stock solutions in DMSO were further diluted with Tris-HCl (DMSO:Tris-HCl–1:9) to the concentrations desired for assays. […] Electrophoresis was run at 110 V for 40 min and analyzed under ultraviolet (UV) light using a FireReader Imaging System (UVITEC, Cambridge, UK). Band intensities were measured using the software Image Lab, Version 6.1 (BioRad Laboratories, Hercules, CA, USA). […]

[6] = Caco-2, SI Caco-2 (selectivity index, cancer versus non-cancer cell line NHDF), Caco-2 versus NHDF, 72 h

SMILES	selectivity ratio at 72 h [1, 6]	SI Caco-2 (selectivity index, cancer versus non-cancer cell line NHDF) [2]	IC50 [2] [nM]	viability at 10 µM [2] [%]	effect on cell cycle distribution (Caco-2 cells [3]; Caco-2, 1 µM, 72 and 120 h)	morphological changes of Caco-2 cells (Caco-2 cells [4]; 1 µM)	relative intensity of relaxed DNA band (normalized to No drug sample) [5]	proportion of cells in G0/G1 phase (Caco-2 cells [3]; Caco-2, 10 µM, 72 h)	proportion of cells in G2/M phase (Caco-2 cells [3]; Caco-2, 10 µM, 72 h) [%]	morphological changes of Caco-2 cells (Caco-2 cells [4]; 10 µM)	selectivity ratio at 72 h ([1]; Caco-2)	proportion of cells in S phase (Caco-2 cells [3]; Caco-2, 10 µM, 72 h)
CN1C(=Cc2oc3ccccc3[n+]2C)C=Cc2ccccc21.Cc1ccc(S(=O)(=O)[O-])cc1 [Dye 5, 3-Methyl-2-((1-methylquinolin-2(1H)-ylidene)methyl)benzo[d]oxazol-3-ium 4-methylbenzenesulfonate]	278	278.3	10	5.05 ± 0.19	did not significantly alter the cell cycle distribution	a few apoptotic bodies	0.31 ± 0.063					
CCN1C(=Cc2sc3cc([N+](=O)[O-])ccc3[n+]2CC)Sc2ccccc21.Cc1ccc(S(=O)(=O)[O-])cc1 [Dye 10, 3-Ethyl-2-((3-ethylbenzo[d]thiazol-2(3H)-ylidene)methyl)-6-nitrobenzo[d]thiazol-3-ium 4-methylbenzenesulfonate]	151	151.4	140	18.6 ± 0.65			0.65 ± 0.024	approximately 62.0%	6.6	noticeable reduction in the size of Caco-2 cells		
O=c1[nH]cc(F)c(=O)[nH]1 [5-FU, 5-fluorouracil, reference compound]			1110	30.1 ± 1.24				10.1%			4.1	around 80.3%
